According to the NIST ThermoML archive (doi:10.1016/j.fluid.2014.04.038):
“And” between values parts separate entries of the source, which are not always exact repeats. Identical values can stand only once. ± gives the expanded uncertainty stated by the source.

Conditions: Hot wire method

CCF [fluoroethane]
Liquid
Conditions	thermal conductivity
233.99 K	0.1496 ± 0.006 W/m/K
234 K	0.1487 ± 0.006 W/m/K
234.01 K	0.1487 ± 0.006 W/m/K
234.32 K	0.1483 ± 0.006 W/m/K and 0.1482 ± 0.006 W/m/K and 0.1492 ± 0.006 W/m/K
234.57 K	0.1496 ± 0.006 W/m/K
234.63 K	0.1492 ± 0.006 W/m/K
234.64 K	0.149 ± 0.006 W/m/K
244.01 K	0.1429 ± 0.0057 W/m/K
244.04 K	0.1429 ± 0.0057 W/m/K and 0.1423 ± 0.0057 W/m/K
244.22 K	0.1424 ± 0.0057 W/m/K
244.25 K	0.143 ± 0.0057 W/m/K
244.26 K	0.1433 ± 0.0058 W/m/K
244.5 K	0.1426 ± 0.0057 W/m/K
244.51 K	0.142 ± 0.0057 W/m/K
244.54 K	0.1426 ± 0.0057 W/m/K
253.79 K	0.1362 ± 0.0055 W/m/K and 0.1361 ± 0.0055 W/m/K
253.8 K	0.1362 ± 0.0055 W/m/K
254.08 K	0.1364 ± 0.0055 W/m/K
254.09 K	0.1368 ± 0.0055 W/m/K and 0.1363 ± 0.0055 W/m/K
254.12 K	0.1357 ± 0.0054 W/m/K
254.14 K	0.135 ± 0.0054 W/m/K
254.15 K	0.1346 ± 0.0054 W/m/K
254.36 K	0.1352 ± 0.0054 W/m/K
254.37 K	0.1358 ± 0.0055 W/m/K
254.41 K	0.1355 ± 0.0054 W/m/K
254.71 K	0.1359 ± 0.0055 W/m/K
254.75 K	0.1355 ± 0.0054 W/m/K
254.79 K	0.1354 ± 0.0054 W/m/K
263.94 K	0.1286 ± 0.0052 W/m/K
263.95 K	0.128 ± 0.0052 W/m/K and 0.1283 ± 0.0052 W/m/K
264.16 K	0.1283 ± 0.0052 W/m/K
264.17 K	0.1287 ± 0.0052 W/m/K
264.19 K	0.1288 ± 0.0052 W/m/K
264.43 K	0.1285 ± 0.0052 W/m/K
264.51 K	0.1293 ± 0.0052 W/m/K and 0.129 ± 0.0052 W/m/K
274.37 K	0.1215 ± 0.0049 W/m/K
274.39 K	0.1214 ± 0.0049 W/m/K
274.4 K	0.1213 ± 0.0049 W/m/K
274.62 K	0.1218 ± 0.0049 W/m/K
274.64 K	0.1224 ± 0.0049 W/m/K
274.66 K	0.122 ± 0.0049 W/m/K
274.95 K	0.1224 ± 0.0049 W/m/K
274.97 K	0.1224 ± 0.0049 W/m/K
274.98 K	0.1226 ± 0.0049 W/m/K
284.17 K	0.1146 ± 0.0046 W/m/K
284.22 K	0.1146 ± 0.0046 W/m/K
284.23 K	0.1153 ± 0.0046 W/m/K
284.43 K	0.1154 ± 0.0046 W/m/K
284.46 K	0.1155 ± 0.0046 W/m/K
284.47 K	0.1152 ± 0.0046 W/m/K
284.78 K	0.1163 ± 0.0047 W/m/K
284.8 K	0.1164 ± 0.0047 W/m/K
284.81 K	0.1162 ± 0.0047 W/m/K
294.43 K	0.1097 ± 0.0044 W/m/K
294.59 K	0.1098 ± 0.0044 W/m/K
294.63 K	0.1109 ± 0.0045 W/m/K and 0.1095 ± 0.0044 W/m/K
294.64 K	0.1105 ± 0.0044 W/m/K
294.65 K	0.1103 ± 0.0044 W/m/K
294.7 K	0.1103 ± 0.0044 W/m/K
294.89 K	0.1094 ± 0.0044 W/m/K
294.9 K	0.1096 ± 0.0044 W/m/K
294.91 K	0.1093 ± 0.0044 W/m/K
294.94 K	0.1112 ± 0.0045 W/m/K and 0.1104 ± 0.0044 W/m/K
294.95 K	0.111 ± 0.0045 W/m/K
295.22 K	0.11 ± 0.0044 W/m/K and 0.1098 ± 0.0044 W/m/K
304.39 K	0.1056 ± 0.0043 W/m/K
304.4 K	0.1056 ± 0.0043 W/m/K
304.41 K	0.1057 ± 0.0043 W/m/K
304.67 K	0.1054 ± 0.0042 W/m/K
304.68 K	0.1056 ± 0.0043 W/m/K and 0.1052 ± 0.0042 W/m/K
305.07 K	0.1055 ± 0.0042 W/m/K
305.19 K	0.1057 ± 0.0043 W/m/K and 0.1058 ± 0.0043 W/m/K
314.36 K	0.1007 ± 0.004 W/m/K and 0.1002 ± 0.004 W/m/K
314.38 K	0.1003 ± 0.004 W/m/K
314.4 K	0.1003 ± 0.004 W/m/K and 0.1012 ± 0.0041 W/m/K
314.46 K	0.1013 ± 0.0041 W/m/K
314.68 K	0.1009 ± 0.0041 W/m/K
314.69 K	0.1008 ± 0.004 W/m/K
314.7 K	0.1003 ± 0.004 W/m/K
314.71 K	0.1011 ± 0.0041 W/m/K and 0.1008 ± 0.004 W/m/K
314.72 K	0.1006 ± 0.004 W/m/K
315.05 K	0.1008 ± 0.004 W/m/K
315.06 K	0.1007 ± 0.004 W/m/K
315.07 K	0.1005 ± 0.004 W/m/K and 0.101 ± 0.0041 W/m/K and 0.1008 ± 0.004 W/m/K
315.08 K	0.1002 ± 0.004 W/m/K
324.64 K	0.09597 ± 0.0039 W/m/K and 0.09452 ± 0.0038 W/m/K
324.66 K	0.09557 ± 0.0038 W/m/K
324.85 K	0.09515 ± 0.0038 W/m/K
324.86 K	0.09533 ± 0.0038 W/m/K
324.87 K	0.09498 ± 0.0038 W/m/K
325.28 K	0.09515 ± 0.0038 W/m/K
325.29 K	0.09565 ± 0.0039 W/m/K
325.3 K	0.09512 ± 0.0038 W/m/K

Gas
Conditions	thermal conductivity [W/m/K]
236.45 K, 86.1 kPa	0.00838 ± 0.00053
244.29 K, 84.5 kPa	0.00938 ± 0.00059
245.47 K, 132.2 kPa	0.00931 ± 0.00058
246.92 K, 132.2 kPa	0.00972 ± 0.00061
248.24 K, 132.2 kPa	0.00989 ± 0.00062
248.83 K, 84.5 kPa	0.00985 ± 0.00062
254.05 K, 84.5 kPa	0.01031 ± 0.00064
255.52 K, 201.2 kPa	0.01058 ± 0.00066
260.98 K, 132.4 kPa	0.01112 ± 0.00069
265.31 K, 286.1 kPa	0.01142 ± 0.00071
266.46 K, 286.1 kPa	0.01169 ± 0.00073
275.33 K, 370.8 kPa	0.01266 ± 0.00079
276 K, 139.9 kPa	0.01306 ± 0.00081
276.13 K, 370.8 kPa	0.01296 ± 0.00081
277.34 K, 370.8 kPa	0.01294 ± 0.0008
278.06 K, 139.9 kPa	0.01337 ± 0.00083
278.85 K, 139.9 kPa	0.01329 ± 0.00083
286.13 K, 481.4 kPa	0.01426 ± 0.00088
286.26 K, 271.3 kPa	0.01438 ± 0.00089
287.56 K, 578.8 kPa	0.01402 ± 0.00087
287.6 K, 481.4 kPa	0.01425 ± 0.00088
287.72 K, 271.3 kPa	0.01452 ± 0.0009
288.9 K, 481.4 kPa	0.01448 ± 0.0009
289.14 K, 271.3 kPa	0.0144 ± 0.00089
295.76 K, 779.2 kPa	0.01526 ± 0.00094
295.78 K, 690.7 kPa	0.0151 ± 0.00094
295.97 K, 520.7 kPa	0.01551 ± 0.00096
296.2 K, 275.3 kPa	0.01553 ± 0.00096
297.07 K, 690.7 kPa	0.01526 ± 0.00094
297.24 K, 520.7 kPa	0.01534 ± 0.00095
297.64 K, 275.3 kPa	0.01544 ± 0.00096
298.46 K, 520.7 kPa	0.01532 ± 0.00095
299.03 K, 275.3 kPa	0.01558 ± 0.00096
305.63 K, 712.7 kPa	0.01677 ± 0.001
305.93 K, 916.4 kPa	0.0163 ± 0.001
306.16 K, 227 kPa	0.01673 ± 0.001
306.42 K, 1035 kPa	0.01653 ± 0.001
306.59 K, 712.7 kPa	0.01627 ± 0.001
306.71 K, 504.3 kPa	0.01683 ± 0.001
306.93 K, 916.4 kPa	0.01663 ± 0.001
306.93 K, 1035 kPa	0.01725 ± 0.0011
306.97 K, 227 kPa	0.01654 ± 0.001
307.36 K, 1035 kPa	0.01661 ± 0.001
307.57 K, 504.3 kPa	0.01663 ± 0.001
307.89 K, 227 kPa	0.01643 ± 0.001
315.53 K, 1227.4 kPa	0.01838 ± 0.0011
315.63 K, 1202.4 kPa	0.01779 ± 0.0011
315.79 K, 316.7 kPa	0.01783 ± 0.0011
315.81 K, 1005.9 kPa	0.01828 ± 0.0011
315.87 K, 807.4 kPa	0.01738 ± 0.0011
316.01 K, 1341.3 kPa	0.01815 ± 0.0011
316.27 K, 1202.4 kPa	0.01803 ± 0.0011
316.4 K, 1005.9 kPa	0.01789 ± 0.0011
316.4 K, 1341.3 kPa	0.01835 ± 0.0011
316.53 K, 1162.6 kPa	0.01796 ± 0.0011
316.59 K, 807.4 kPa	0.01737 ± 0.0011
316.83 K, 613.8 kPa	0.01747 ± 0.0011
316.94 K, 1202.4 kPa	0.0181 ± 0.0011
317.06 K, 1341.3 kPa	0.01801 ± 0.0011
317.12 K, 1005.9 kPa	0.01811 ± 0.0011
318.31 K, 316.7 kPa	0.01787 ± 0.0011
321.99 K, 1292.4 kPa	0.01904 ± 0.0012
322.07 K, 1292.4 kPa	0.01921 ± 0.0012
322.37 K, 797.5 kPa	0.01858 ± 0.0011
322.59 K, 797.5 kPa	0.01847 ± 0.0011
323.36 K, 797.5 kPa	0.01857 ± 0.0011
324.32 K, 1700.6 kPa	0.01997 ± 0.0012
324.97 K, 1700.6 kPa	0.0202 ± 0.0013
325.27 K, 1362.6 kPa	0.01957 ± 0.0012
325.45 K, 1700.6 kPa	0.02011 ± 0.0012
326.1 K, 1362.6 kPa	0.01993 ± 0.0012
326.61 K, 1095.3 kPa	0.0197 ± 0.0012
326.64 K, 968 kPa	0.01935 ± 0.0012
326.71 K, 798.3 kPa	0.01946 ± 0.0012
326.98 K, 999.2 kPa	0.01933 ± 0.0012
